According to patent US4939175A, “Use of N,N-dimethyl-1-[1-(4-chlorophenyl)cyclobutyl]-3-methylbutylamine” (priority 1988, dated 1990):
Where two headings read alike, the source gives them in different places.

What was measured:
[1] = tested on: inhibition of conditioned avoidance response induced by reserpine in rats; assay: Inhibition of conditioned avoidance response induced by reserpine in rats; assay type: in vivo, Std-Wistar male rats; conditions: for Conditioned avoidance response 1 hour after administration of the test sample: reserpine 1 mg/kg, control 2; for Conditioned avoidance response before administration of reserpine: baseline before test sample; for Conditioned avoidance response 18 to 20 hours after administration of reserpine: reserpine 1 mg/kg i.p., before test sample
Method: Effect of the test samples on the inhibition of conditioned avoidance response induced by reserpine in rats
Std-Wistar male rats (8 to 9 week age) weighing of 270 to 300 g were fed under the conditions of 23±2° C., 60±10% R.H. and artificial lighting from 7 AM to 7 PM for a week, and then subjected to the test.
The test was carried out by using a shuttle box. The shuttle box used herein was a rectangular box, which was equipped with a buzzer for conditioned stimulus at the upper part and grids of 2 mm in diameter, for non-conditioned stimulus, at intervals of 1 cm on the floor, and divided into two equal sized compartments by a hurdle of 5 cm in height.
The schedule for inducing the conditioned avoidance response was controlled by a computer, and all the observed results of avoidance or escape response were recorded automatically.
The avoidance condition was carried out as follows:
After the conditioned stimulus of the buzzer with sound signal for 5 seconds, the non-conditioned stimulus of the foot shock was given for 5 seconds to rats. Each stimulus was stopped immediately, if the rat jumped over the hurdle to the other compartment during the conditioned or non-conditioned stimulus.
The above-mentioned rats were put on the trials for 25 times. Then the rats were given reserpine (1 mg/kg, intraperitoneally). The rats were tested for 15 times at the time of 18 to 20 hours after the reserpine administration, and then they were divided into several groups ([…]).
The test sample was dissolved in distilled water and administered orally to each group at 24 to 26 hours after the reserpine administration. For reference, distilled water as control sample, and amitriptyline and amantadine as test drugs were used.
At one hour after the test sample administration, the rats were put on the trials for 25 times and the conditioned avoidance responce was compared between the control group (distilled water administration), the test compound-administered group and the test drug-administered groups.

[2] = tested on: depletion of dopamine induced by MPTP in mice whole brain; assay: animal or person; assay type: in vivo, SlC: ddy strain male mice; conditions: Mus musculus, po, 168 h, MPTP 50 mg/kg s.c., read-out: Percentage of the amount of dopamine in the treated group against the amount of dopamine in the non-treated group; for response vs control in vivo at 10 mg/kg: 10 mg/kg oral; for response vs control in vivo at 30 mg/kg: 30 mg/kg oral
[3] = tested on: circling behavior in rats with unilateral substantia nigra lesions; assay: Circling behavior in rats with unilateral substantia nigra lesions; assay type: in vivo, Std: Wistar male rats; conditions: 50 mg/kg oral, 2 hours after; control 0.1 ± 0.4
Method: Effect of the test samples on circling behavior in rats with unilateral substantia nigra lesions
Std: Wistar male rats (8 heads/group) were used. The rat with unilateral substantia nigra lesions was made by injecting 8 μg/4 μl of 6-hydroxydopamine to the right side of substantia nigra.
The test sample was administered orally to the rat. At 2 hours later, the number of circling behavior per 10 minutes was counted.
Amantadine was used as the reference drug and distilled water was used as control sample.

[4] = tested on: re-uptake of ^3 H-dopamine; assay: Re-uptake of 3H-dopamine in vitro (synaptosomes, P2 fraction of whole brain); assay type: biochemical, Std: Wistar strain male rat; conditions: rat brain synaptosomes, 37° C., 20 minutes
Method: Effect of the test samples on the re-uptake of ^3 H-dopamine in vitro
P2 fraction was prepared from the whole brain of Std: Wistar strain male rat. […] The obtained mixture was incubated at 37° C. for 20 minutes and then subjected to the suction filtration with Whatman GF/B filter paper.
The obtained filter paper was put in a vial containing 10 ml of toluene type scintillator and its radioactivity was measured by means of liquid scintillation counter. The amount of the specific re-uptake of ^3 H-dopamine was obtained by subtracting the amount of re-uptake at 0° C. as blank.

[5] = tested on: depletion of serotonin induced by p-chloroamphetamine; assay: Depletion of serotonin (5-HT) induced by p-chloroamphetamine (whole brain); assay type: in vivo, SlC:ddy mice; conditions: p-chloroamphetamine 10 mg/kg i.p., control 48 ± 6, **p < 0.01
Method: Effect of the test samples on the depletion of serotonin (hereinafter referred to as "5-HT") induced by p-chloroamphetamine
The test sample was administered orally to SlC:ddy made mice and after 60 minutes, p-chloroamphetamine (10 mg/kg) was injected intraperitoneally.
At 6 hours later, the mice were decapitated. The whole brain was rapidly removed and homogenized in 0.06M perchloric acid with N-methylserotonin (10 μg/ml) as an internal standard. The homogenate was centrifuged and then the amount of 5-HT in the supernatant was determined by high performance liquid chromatography with electrochemical detection.
Amitriptyline was used as the reference drug and distilled water was used as control sample.

[6] = tested on: spontaneous movement of mice; assay: Spontaneous movement of mice; parameters: species or system SlC:ddy male mice; conditions: mouse, in vivo
Method: Effect of the test samples on the sponteneous movement of mice
The test sample was administered orally to SlC:ddy male mice. Immediately after, the amount of movement activity of the test mice was measured for 16 hours, at the time of 1, 2, 4, 8 and 16 hours respectively after the oral administration, by means of spontaneous movement measuring system (displacement measuring type).
Methamphetamine was used as the reference drug and distilled water was used as control sample.
The obtained results are shown in FIG. 1, columns and bars represent the mean±S.D. and statistical significance was evaluated by the multiple comparison test of Dunnet's type.

memory and learning = assay: Effect on memory and learning in preclinical studies; assay type: in vivo
[7] = tested on: dopamine neuron, norepinephrine and serotonin neuron; assay: Activation of dopamine, norepinephrine and serotonin neuron
[8] = Japanese Unexamined Patent Publication No. 181,043 (1982); cited from earlier work
[9] = Experiment II, control 88 ± 20, *P < 0.05
[10] = Experiment I, control 71 ± 11, *P < 0.05, **P < 0.01

For NC12CC3CC(CC(C3)C1)C2 [Amantadine, amantadine], the “Conditioned avoidance response 1 hour after administration of the test sample” value (“Conditioned avoidance response 1 hour” below) ([1]; 10 mg/kg oral) was 2%, the “Conditioned avoidance response 1 hour” value ([1]; 50 mg/kg oral) was 38% and the “Conditioned avoidance response before administration of reserpine” value ([1]; 10 mg/kg group) was 94%. For the same compound, the “Conditioned avoidance response before administration of reserpine” value ([1]; 50 mg/kg group) was 95%, the “Conditioned avoidance response 18 to 20 hours after administration of reserpine” value ([1]; 10 mg/kg group) was 3% and the “Conditioned avoidance response 18 to 20 hours after administration of reserpine” value ([1]; 50 mg/kg group) was 3%. The response vs control in vivo at 10 mg/kg [2, 9] was 77 ± 21%, the response vs control in vivo at 30 mg/kg [2, 9] was 64 ± 16% and the “Number of circling behavior per 10 min.” value [3] was 0.4 ± 0.7 per 10 min.

With CN(C)CCC=C1c2ccccc2CCc2ccccc21 [Amitriptyline, amitriptyline] the “Conditioned avoidance response 1 hour” value ([1]; 10 mg/kg oral) was 1%, the “Conditioned avoidance response 1 hour” value ([1]; 40 mg/kg oral) was 0% and the “Conditioned avoidance response before administration of reserpine” value ([1]; 10 mg/kg group) was 93%. The “Conditioned avoidance response before administration of reserpine” value ([1]; 40 mg/kg group) was 94%, the “Conditioned avoidance response 18 to 20 hours after administration of reserpine” value ([1]; 10 mg/kg group) was 1% and the “Conditioned avoidance response 18 to 20 hours after administration of reserpine” value ([1]; 40 mg/kg group) was 7%. For the same compound, the response vs control in vivo at 10 mg/kg [2, 10] was 81 ± 15%, the response vs control in vivo at 30 mg/kg [2, 10] was 77 ± 15% and the IC50 ([4]; Experiment I) was 7.7 µM. For the same compound, the IC50 ([4]; Experiment II) was 8.2 µM, the “Percentages of the amount of 5-HT in the treated group against the amount of 5-HT in the non-treated group” value (“Percentages … in the non-treated group” below) ([5]; 10 mg/kg oral) was 50 ± 4% and the “Percentages … in the non-treated group” value ([5]; 30 mg/kg oral) was 56 ± 10%. For the same compound, the “Percentages … in the non-treated group” value ([5]; 90 mg/kg oral) was 92 ± 8%.

With CC(C)CC(N(C)C)C1(c2ccc(Cl)cc2)CCC1 (stereo not drawn) [N,N-dimethyl-1-[1-(4-chlorophenyl)cyclobutyl]-3-methylbutylamine] the spontaneous movement [6] was “increase of spontaneous movement”, the “effect on memory and learning” value (memory and learning) was “intensive effect on memory and learning” and the “activation of dopamine neuron in addition to both norepinephrine and serotonin neuron” value [7] was “intensive activation of dopamine neuron in addition to both norepinephrine and serotonin neuron”. For the same compound, the “effect on dopamine activity” value [7] was “enhancing effect of dopamine activity” and the “therapeutical effect as an antidepressant” value [8] was “has a therapeutical effect as an antidepressant”.
